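Exposure lasted 48 hours, with cells grown in 96-well plates and compounds tested at five concentrations. Definition used: TGI = concentration required for complete inhibition of growth.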
System: DMS 114 small cell lung
Assay: NCI-60 cell line screen, 48 h

| SMILES | TGI |
| --- | --- |
| CCCCCCCCCCCCCCCC(=O)Nc1ccn(C2OC(CO)C(O)C2O)c(=O)n1 (stereo not drawn) | > 100 µM |

System: KM20L2 colon
Assay: NCI-60 cell line screen, 48 h

| SMILES | TGI |
| --- | --- |
| N#C/C(=C/c1cccc2ccccc12)C(=O)c1ccccc1 | 37.1 µM |
| CCc1n[nH]c(=S)n1/N=C/c1ccc(-c2ccc([N+](=O)[O-])cc2)o1 | > 100 µM |
| CN(C)C(=S)NC(=S)Nc1ccc2ccccc2c1 | 23.7 µM |
| CCCCCCCCCCCCCCCC(=O)Nc1ccn(C2OC(CO)C(O)C2O)c(=O)n1 (stereo not drawn) | > 100 µM |

System: SK-MEL-5 melanoma
Assay: NCI-60 cell line screen, 48 h

| SMILES | TGI |
| --- | --- |
| N#C/C(=C/c1cccc2ccccc12)C(=O)c1ccccc1 | > 10 µM |
| CN(C)C(=S)NC(=S)Nc1ccc2ccccc2c1 | 25 µM |
| CCCCCCCCCCCCCCCC(=O)Nc1ccn(C2OC(CO)C(O)C2O)c(=O)n1 (stereo not drawn) | > 100 µM |

System: MDA-MB-231 breast
Assay: NCI-60 cell line screen, 48 h

| SMILES | TGI |
| --- | --- |
| CN(C)C(=S)NC(=S)Nc1ccc2ccccc2c1 | 48.1 µM |
| CCCCCCCCCCCCCCCC(=O)Nc1ccn(C2OC(CO)C(O)C2O)c(=O)n1 (stereo not drawn) | > 100 µM |

System: NCI-H23 lung
Assay: NCI-60 cell line screen, 48 h

| SMILES | TGI |
| --- | --- |
| N#C/C(=C/c1cccc2ccccc12)C(=O)c1ccccc1 | 32.2 µM |
| CCc1n[nH]c(=S)n1/N=C/c1ccc(-c2ccc([N+](=O)[O-])cc2)o1 | > 100 µM |
| CN(C)C(=S)NC(=S)Nc1ccc2ccccc2c1 | 43.9 µM |
| CCCCCCCCCCCCCCCC(=O)Nc1ccn(C2OC(CO)C(O)C2O)c(=O)n1 (stereo not drawn) | 81.5 µM |

System: SF-268 CNS
Assay: NCI-60 cell line screen, 48 h

| SMILES | TGI |
| --- | --- |
| CCc1n[nH]c(=S)n1/N=C/c1ccc(-c2ccc([N+](=O)[O-])cc2)o1 | > 100 µM |
| CN(C)C(=S)NC(=S)Nc1ccc2ccccc2c1 | 47.3 µM |
| CCCCCCCCCCCCCCCC(=O)Nc1ccn(C2OC(CO)C(O)C2O)c(=O)n1 (stereo not drawn) | > 100 µM |

System: UACC-257 melanoma
Assay: NCI-60 cell line screen, 48 h

| SMILES | TGI |
| --- | --- |
| N#C/C(=C/c1cccc2ccccc12)C(=O)c1ccccc1 | > 10 µM |
| CCc1n[nH]c(=S)n1/N=C/c1ccc(-c2ccc([N+](=O)[O-])cc2)o1 | > 100 µM |
| CN(C)C(=S)NC(=S)Nc1ccc2ccccc2c1 | 24.2 µM |
| CCCCCCCCCCCCCCCC(=O)Nc1ccn(C2OC(CO)C(O)C2O)c(=O)n1 (stereo not drawn) | > 100 µM |

System: SK-MEL-2 melanoma
Assay: NCI-60 cell line screen, 48 h

| SMILES | TGI |
| --- | --- |
| N#C/C(=C/c1cccc2ccccc12)C(=O)c1ccccc1 | 41.6 µM |
| CCc1n[nH]c(=S)n1/N=C/c1ccc(-c2ccc([N+](=O)[O-])cc2)o1 | > 100 µM |
| CN(C)C(=S)NC(=S)Nc1ccc2ccccc2c1 | 41.6 µM |
| CCCCCCCCCCCCCCCC(=O)Nc1ccn(C2OC(CO)C(O)C2O)c(=O)n1 (stereo not drawn) | > 100 µM |

System: KM12 colon
Assay: NCI-60 cell line screen, 48 h

| SMILES | TGI |
| --- | --- |
| N#C/C(=C/c1cccc2ccccc12)C(=O)c1ccccc1 | 43.2 µM |
| CCc1n[nH]c(=S)n1/N=C/c1ccc(-c2ccc([N+](=O)[O-])cc2)o1 | > 100 µM |
| CN(C)C(=S)NC(=S)Nc1ccc2ccccc2c1 | 37.6 µM |
| CCCCCCCCCCCCCCCC(=O)Nc1ccn(C2OC(CO)C(O)C2O)c(=O)n1 (stereo not drawn) | > 100 µM |

System: MDA-MB-435
Assay: NCI-60 cell line screen, 48 h

| SMILES | TGI |
| --- | --- |
| CN(C)C(=S)NC(=S)Nc1ccc2ccccc2c1 | 68 µM |
| CCCCCCCCCCCCCCCC(=O)Nc1ccn(C2OC(CO)C(O)C2O)c(=O)n1 (stereo not drawn) | > 100 µM |

System: DU-145 prostate
Assay: NCI-60 cell line screen, 48 h

| SMILES | TGI |
| --- | --- |
| CN(C)C(=S)NC(=S)Nc1ccc2ccccc2c1 | 77.9 µM |
| CCCCCCCCCCCCCCCC(=O)Nc1ccn(C2OC(CO)C(O)C2O)c(=O)n1 (stereo not drawn) | > 50.3 µM |

System: MCF7 breast
Assay: NCI-60 cell line screen, 48 h

| SMILES | TGI |
| --- | --- |
| CN(C)C(=S)NC(=S)Nc1ccc2ccccc2c1 | 37.1 µM |
| CCCCCCCCCCCCCCCC(=O)Nc1ccn(C2OC(CO)C(O)C2O)c(=O)n1 (stereo not drawn) | > 100 µM |

System: IGROV1 ovarian
Assay: NCI-60 cell line screen, 48 h

| SMILES | TGI |
| --- | --- |
| N#C/C(=C/c1cccc2ccccc12)C(=O)c1ccccc1 | 54.8 µM |
| CCc1n[nH]c(=S)n1/N=C/c1ccc(-c2ccc([N+](=O)[O-])cc2)o1 | > 100 µM |
| CN(C)C(=S)NC(=S)Nc1ccc2ccccc2c1 | 34.6 µM |
| CCCCCCCCCCCCCCCC(=O)Nc1ccn(C2OC(CO)C(O)C2O)c(=O)n1 (stereo not drawn) | > 100 µM |

System: SW-620 colon
Assay: NCI-60 cell line screen, 48 h

| SMILES | TGI |
| --- | --- |
| N#C/C(=C/c1cccc2ccccc12)C(=O)c1ccccc1 | 32 µM |
| CCc1n[nH]c(=S)n1/N=C/c1ccc(-c2ccc([N+](=O)[O-])cc2)o1 | > 100 µM |
| CN(C)C(=S)NC(=S)Nc1ccc2ccccc2c1 | > 75.2 µM |
| CCCCCCCCCCCCCCCC(=O)Nc1ccn(C2OC(CO)C(O)C2O)c(=O)n1 (stereo not drawn) | > 100 µM |

System: SNB-75 CNS
Assay: NCI-60 cell line screen, 48 h

| SMILES | TGI |
| --- | --- |
| CCc1n[nH]c(=S)n1/N=C/c1ccc(-c2ccc([N+](=O)[O-])cc2)o1 | > 100 µM |
| CN(C)C(=S)NC(=S)Nc1ccc2ccccc2c1 | 62.5 µM |
| CCCCCCCCCCCCCCCC(=O)Nc1ccn(C2OC(CO)C(O)C2O)c(=O)n1 (stereo not drawn) | > 90.4 µM |

System: HOP-92 NSCLC
Assay: NCI-60 cell line screen, 48 h

| SMILES | TGI |
| --- | --- |
| CCc1n[nH]c(=S)n1/N=C/c1ccc(-c2ccc([N+](=O)[O-])cc2)o1 | > 100 µM |
| CN(C)C(=S)NC(=S)Nc1ccc2ccccc2c1 | 48.1 µM |
| CCCCCCCCCCCCCCCC(=O)Nc1ccn(C2OC(CO)C(O)C2O)c(=O)n1 (stereo not drawn) | 85.5 µM |

System: UO-31 renal
Assay: NCI-60 cell line screen, 48 h

| SMILES | TGI |
| --- | --- |
| N#C/C(=C/c1cccc2ccccc12)C(=O)c1ccccc1 | 35.9 µM |
| CCc1n[nH]c(=S)n1/N=C/c1ccc(-c2ccc([N+](=O)[O-])cc2)o1 | > 100 µM |
| CN(C)C(=S)NC(=S)Nc1ccc2ccccc2c1 | 48 µM |
| CCCCCCCCCCCCCCCC(=O)Nc1ccn(C2OC(CO)C(O)C2O)c(=O)n1 (stereo not drawn) | > 43.9 µM |

System: SNB-78 CNS
Assay: NCI-60 cell line screen, 48 h

| SMILES | TGI |
| --- | --- |
| N#C/C(=C/c1cccc2ccccc12)C(=O)c1ccccc1 | > 100 µM |
| CCc1n[nH]c(=S)n1/N=C/c1ccc(-c2ccc([N+](=O)[O-])cc2)o1 | > 100 µM |
| CN(C)C(=S)NC(=S)Nc1ccc2ccccc2c1 | 77.5 µM |
| CCCCCCCCCCCCCCCC(=O)Nc1ccn(C2OC(CO)C(O)C2O)c(=O)n1 (stereo not drawn) | > 100 µM |

System: SK-MEL-28 melanoma
Assay: NCI-60 cell line screen, 48 h

| SMILES | TGI |
| --- | --- |
| N#C/C(=C/c1cccc2ccccc12)C(=O)c1ccccc1 | 30 µM |

Reference: PubChem BioAssay (NCI)
